We go through 9 compounds from PubChem BioAssay (NCI).

SMILES strings stand for the structures.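 Cultured in 96-well plates, cells were exposed to test compound for 48 hours across five concentrations. TGI marks complete inhibition of growth.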

Among the test systems are TK-10 renal; KM12 colon; OVCAR-4 ovarian; ACHN renal; K-562 leukemia; RXF 393 renal; SNB-19 CNS; U251 CNS; HT29 colon; SK-OV-3 ovarian; SK-MEL-5 melanoma; HL-60(TB) leukemia; RPMI-8226 leukemia; HOP-62 NSCLC; MALME-3M melanoma; MCF7 breast; MDA-MB-435.
Common to all, as to assay: NCI tumour cell line growth inhibition, 48 h

In the case of `CC(=O)C(CN(C)Cc1ccccc1)C(c1ccccc1)c1c(O)c2ccccc2oc1=O` (stereo unspecified), the TGI with TK-10 renal, in the test on KM12 colon, in the test with OVCAR-4 ovarian, in the test with ACHN renal, in the test with K-562 leukemia and with RXF 393 renal was greater than 100 µM throughout. In addition, the TGI in the test on SNB-19 CNS is 93.2 µM; in the test on U251 CNS, greater than 100 µM; with HT29 colon, greater than 100 µM; in the test with SK-OV-3 ovarian, greater than 100 µM; in the test with SK-MEL-5 melanoma it was greater than 100 µM; in the test with HL-60(TB) leukemia, greater than 100 µM. In addition, the TGI in the test on RPMI-8226 leukemia, with HOP-62 NSCLC and with MALME-3M melanoma was greater than 100 µM each time.
`CCOC(=O)C1=COC(C)(C)CC1=O`: the TGI with TK-10 renal, with KM12 colon, in the test with OVCAR-4 ovarian, in the test with ACHN renal, with MCF7 breast and in the test on K-562 leukemia was greater than 100 µM throughout. In addition, the TGI with RXF 393 renal, in the test with SNB-19 CNS, in the test on U251 CNS, with HT29 colon, with SK-OV-3 ovarian and in the test on SK-MEL-5 melanoma was greater than 100 µM throughout. Further, the TGI in the test with RPMI-8226 leukemia, in the test with HOP-62 NSCLC and with MDA-MB-435 was greater than 100 µM throughout.
In the case of `CC(=O)C1=C(C)N(c2ccc(C)cc2)C2(O)C=CC(=O)C3=C(O)c4ccccc4C(=O)C312` (stereo unspecified), the TGI is 47.2 µM in the test on TK-10 renal; 55.1 µM in the test with KM12 colon; 36 µM in the test on OVCAR-4 ovarian; 36.8 µM with ACHN renal; greater than 100 µM in the test on MCF7 breast; greater than 100 µM in the test on K-562 leukemia. In addition, the TGI is greater than 100 µM in the test on RXF 393 renal; greater than 100 µM in the test with SNB-19 CNS; 69.6 µM with U251 CNS; 15.7 µM with HT29 colon; greater than 100 µM in the test with SK-OV-3 ovarian; 26.3 µM with SK-MEL-5 melanoma. Moreover, the TGI in the test with HL-60(TB) leukemia was greater than 100 µM; in the test with RPMI-8226 leukemia, greater than 100 µM; with HOP-62 NSCLC, greater than 100 µM; with MALME-3M melanoma, 5.07 µM.
As for `O=S(=O)(c1ccccc1)n1cnc(CCc2ccccc2)n1`, the TGI in the test with TK-10 renal, in the test with KM12 colon, in the test on OVCAR-4 ovarian, in the test with ACHN renal, with K-562 leukemia and with RXF 393 renal was greater than 100 µM in each case. For the same compound, the TGI in the test on U251 CNS, in the test with HT29 colon, with SK-OV-3 ovarian, in the test on SK-MEL-5 melanoma, in the test with HL-60(TB) leukemia and with RPMI-8226 leukemia was greater than 100 µM in each case. In addition, the TGI in the test on HOP-62 NSCLC and in the test on MALME-3M melanoma was greater than 100 µM in each case.
In the case of `COc1ccccc1NC(=O)CC(=O)n1nc(-c2ccccc2)c(N=Nc2ccccc2[N+](=O)[O-])c1-c1ccccc1`, the TGI in the test on TK-10 renal, in the test on KM12 colon, with OVCAR-4 ovarian, in the test on ACHN renal, in the test with K-562 leukemia and in the test with RXF 393 renal was greater than 100 µM in each case. Further, the TGI in the test with SNB-19 CNS, in the test with U251 CNS, with HT29 colon, in the test with SK-OV-3 ovarian, in the test with SK-MEL-5 melanoma and in the test with HL-60(TB) leukemia was greater than 100 µM throughout. In addition, the TGI in the test on RPMI-8226 leukemia, in the test on HOP-62 NSCLC and in the test with MALME-3M melanoma was greater than 100 µM throughout.
Turning to `O=C(Cc1nc2ccc(C(=O)c3ccccc3)cc2[nH]c1=O)C(=O)Nc1ccc(C(F)(F)F)cc1[N+](=O)[O-]`, the TGI in the test with TK-10 renal, in the test with KM12 colon, in the test with OVCAR-4 ovarian, in the test with ACHN renal, in the test with K-562 leukemia and with SNB-19 CNS was greater than 100 µM in each case. The TGI in the test with U251 CNS, with HT29 colon, in the test on SK-OV-3 ovarian, with SK-MEL-5 melanoma, with HL-60(TB) leukemia and in the test on RPMI-8226 leukemia was greater than 100 µM in each case. The TGI in the test with HOP-62 NSCLC and in the test with MALME-3M melanoma was greater than 100 µM throughout.
Consider `NC(CCC(=O)NC(CSC(=O)N(O)c1ccc(Cl)cc1)C(=O)NCC(=O)O)C(=O)O` (stereo unspecified), for which the TGI in the test with KM12 colon, in the test with OVCAR-4 ovarian, in the test on ACHN renal, with MCF7 breast, in the test on K-562 leukemia and in the test on RXF 393 renal was greater than 0.5 µM throughout. The TGI in the test on SNB-19 CNS, in the test with U251 CNS, with HT29 colon, in the test with SK-OV-3 ovarian, in the test with SK-MEL-5 melanoma and in the test on RPMI-8226 leukemia was greater than 0.5 µM in each case. The TGI with HOP-62 NSCLC and with MDA-MB-435 was greater than 0.5 µM throughout.
Consider `c1ccc(-c2sc(-c3ccccc3)c3c2C2CCC3C2)cc1`, for which the TGI was 89.7 µM in the test on TK-10 renal; greater than 100 µM in the test with KM12 colon; greater than 100 µM in the test on OVCAR-4 ovarian; greater than 100 µM with ACHN renal; greater than 100 µM in the test on K-562 leukemia; 84.5 µM with RXF 393 renal. For the same compound, the TGI is greater than 100 µM with SNB-19 CNS; greater than 100 µM in the test with U251 CNS; 34.5 µM in the test with HT29 colon; greater than 100 µM in the test on SK-OV-3 ovarian; 49.7 µM in the test with SK-MEL-5 melanoma; greater than 100 µM in the test with HL-60(TB) leukemia. Moreover, the TGI in the test on RPMI-8226 leukemia is 44.9 µM; in the test on HOP-62 NSCLC, greater than 100 µM; in the test with MALME-3M melanoma, greater than 100 µM; in the test on MDA-MB-435, greater than 100 µM.
Turning to `C[N+](C)(C)CC(=O)N/N=C/c1oc(-c2cccc([N+](=O)[O-])c2)c(-c2cccc([N+](=O)[O-])c2)c1[N+](=O)[O-]`, the TGI in the test on TK-10 renal, in the test on OVCAR-4 ovarian, in the test with ACHN renal, with RXF 393 renal, in the test on SNB-19 CNS and in the test on HT29 colon was greater than 100 µM each time. Further, the TGI is greater than 100 µM in the test on SK-OV-3 ovarian; greater than 100 µM in the test on SK-MEL-5 melanoma; greater than 100 µM with HL-60(TB) leukemia; 55.3 µM in the test on RPMI-8226 leukemia; greater than 100 µM in the test on HOP-62 NSCLC; greater than 100 µM in the test with MALME-3M melanoma.
